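Interpolation was linear, between the two tested concentrations surrounding the appropriate level; five concentrations were tested over 48 hours in 96-well plates. GI50: concentration for 50% inhibition of growth.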 Activity calls are given as the source filed them. No stated cut-off is given here; in the data, active = GI50 up to about 1.1 µM and inactive = higher.
Columns and labels:
Experiment in all cases: DTP human tumour cell line panel, 48 h
[1] = system: 786-0
[2] = system: A498
[3] = system: A549
[4] = system: BT-549
[5] = system: DU-145
[6] = system: K562
[7] = system: KM12
[8] = system: MCF7
[9] = system: MDA-MB-231
[10] = system: NCI-H226
[11] = system: NCI-H460
[12] = system: NCI-H522
[13] = system: OVCAR-5
[14] = system: SF-268
[15] = system: SF-539
[16] = system: SK-MEL-5
[17] = system: SK-OV-3
[18] = system: SNB-75
[19] = system: T47D

CCC(c1ccccc1)c1cc(C(C)(C)C)cc(C(C)(C)C)c1O (configuration not stated)
GI50 [1]: 15.6 µM (inactive) | GI50 [2]: 19.7 µM (inactive) | GI50 [3]: 16.3 µM (inactive) | GI50 [4]: 19.3 µM (inactive) | GI50 [5]: 19.1 µM (inactive) | GI50 [6]: 16.7 µM (inactive) | GI50 [7]: 18.4 µM (inactive) | GI50 [8]: 20.1 µM (inactive) | GI50 [9]: 18.1 µM (inactive) | GI50 [10]: 18.9 µM (inactive) | GI50 [11]: 17.5 µM (inactive) | GI50 [12]: 13.7 µM (inactive) | GI50 [13]: 13.7 µM (inactive) | GI50 [14]: 15.3 µM (inactive) | GI50 [15]: 17.4 µM (inactive) | GI50 [16]: 18.1 µM (inactive) | GI50 [17]: 14.9 µM (inactive) | GI50 [18]: 14.2 µM (inactive) | GI50 [19]: 16.1 µM (inactive)

CSc1c(C#N)c(=O)n(N)c2c1c(C)nn2-c1ccccc1
GI50 [1]: 40.5 µM (inactive) | GI50 [2]: 21.4 µM (inactive) | GI50 [3]: 21.9 µM (inactive) | GI50 [4]: 30.1 µM (inactive) | GI50 [5]: 37.2 µM (inactive) | GI50 [6]: 31 µM (inactive) | GI50 [7]: 34.2 µM (inactive) | GI50 [8]: 16.6 µM (inactive) | GI50 [9]: 17.6 µM (inactive) | GI50 [10]: 24.8 µM (inactive) | GI50 [11]: > 100 µM (inactive) | GI50 [12]: 22.9 µM (inactive) | GI50 [13]: 24.1 µM (inactive) | GI50 [14]: 42 µM (inactive) | GI50 [15]: 19 µM (inactive) | GI50 [16]: 15.3 µM (inactive) | GI50 [17]: 26.4 µM (inactive) | GI50 [18]: 28.2 µM (inactive) | GI50 [19]: 25.8 µM (inactive)

CC(C)(CCCCC(C)(C)NCC1COc2ccccc2O1)NCC1COc2ccccc2O1 (configuration not stated)
GI50 [1]: 3.25 µM (inactive) | GI50 [2]: > 10 µM (inactive) | GI50 [3]: > 10 µM (inactive) | GI50 [4]: > 10 µM (inactive) | GI50 [5]: > 10 µM (inactive) | GI50 [6]: > 10 µM (inactive) | GI50 [7]: > 10 µM (inactive) | GI50 [8]: 5.98 µM (inactive) | GI50 [9]: 3.54 µM (inactive) | GI50 [10]: > 10 µM (inactive) | GI50 [11]: > 10 µM (inactive) | GI50 [12]: 5.51 µM (inactive) | GI50 [13]: > 10 µM (inactive) | GI50 [14]: 5.45 µM (inactive) | GI50 [15]: 1.85 µM (inactive) | GI50 [16]: 1.6 µM (inactive) | GI50 [17]: > 10 µM (inactive) | GI50 [18]: 9.38 µM (inactive) | GI50 [19]: 7.83 µM (inactive)

COCn1cnc2c(=O)n(-c3ccc(C)cc3)c(=S)n(-c3ccc(C)cc3)c21
GI50 [1]: > 100 µM (inactive) | GI50 [2]: > 100 µM (inactive) | GI50 [3]: > 100 µM (inactive) | GI50 [4]: > 100 µM (inactive) | GI50 [5]: > 100 µM (inactive) | GI50 [6]: > 100 µM (inactive) | GI50 [7]: > 100 µM (inactive) | GI50 [8]: > 100 µM (inactive) | GI50 [9]: > 100 µM (inactive) | GI50 [10]: > 100 µM (inactive) | GI50 [11]: > 100 µM (inactive) | GI50 [12]: > 100 µM (inactive) | GI50 [13]: > 100 µM (inactive) | GI50 [14]: > 100 µM (inactive) | GI50 [15]: > 100 µM (inactive) | GI50 [16]: > 100 µM (inactive) | GI50 [17]: > 100 µM (inactive) | GI50 [18]: 6.98 µM (inactive) | GI50 [19]: > 100 µM (inactive)

Cc1ccc2c(O)c3c(cc2c1)C(=O)c1c2c(cc(O)c1C3=O)C1(C)OC(O2)C(O)C(N(C)C)C1O (configuration not stated)
GI50 [1]: 0.617 µM (active) | GI50 [2]: 1.28 µM (inactive) | GI50 [3]: 0.719 µM (active) | GI50 [4]: 1.49 µM (inactive) | GI50 [5]: 0.767 µM (active) | GI50 [6]: 0.167 µM (active) | GI50 [7]: 0.59 µM (active) | GI50 [8]: 0.287 µM (active) | GI50 [9]: 1.33 µM (inactive) | GI50 [10]: 1.15 µM (inactive) | GI50 [11]: 0.109 µM (active) | GI50 [12]: 1.22 µM (inactive) | GI50 [13]: 1.97 µM (inactive) | GI50 [14]: 3.65 µM (inactive) | GI50 [15]: 1.11 µM (active) | GI50 [16]: 1.22 µM (inactive) | GI50 [17]: 1.09 µM (active) | GI50 [18]: 1.04 µM (active) | GI50 [19]: 0.656 µM (active)

CSc1c(C#N)c(N)nc2c(/N=N\c3ccc(Br)cc3)c(N)nn12
GI50 [1]: 6.17 µM (inactive) | GI50 [2]: 24 µM (inactive) | GI50 [3]: 8.99 µM (inactive) | GI50 [4]: 12.4 µM (inactive) | GI50 [5]: 6.14 µM (inactive) | GI50 [6]: 2.75 µM (inactive) | GI50 [7]: 9.02 µM (inactive) | GI50 [8]: 3.16 µM (inactive) | GI50 [9]: 6.97 µM (inactive) | GI50 [10]: 21.5 µM (inactive) | GI50 [11]: 12.8 µM (inactive) | GI50 [12]: 6.41 µM (inactive) | GI50 [13]: 16.6 µM (inactive) | GI50 [14]: 5.82 µM (inactive) | GI50 [15]: 9.18 µM (inactive) | GI50 [16]: 18.1 µM (inactive) | GI50 [17]: 21.2 µM (inactive) | GI50 [18]: 10.6 µM (inactive) | GI50 [19]: 2 µM (inactive)

O/N=N\c1nc(-c2ccccn2)nc2ccccc12
GI50 [1]: 3.68 µM (inactive) | GI50 [2]: 32.4 µM (inactive) | GI50 [3]: 45.3 µM (inactive) | GI50 [4]: 20.8 µM (inactive) | GI50 [5]: 15 µM (inactive) | GI50 [6]: 2.23 µM (inactive) | GI50 [7]: 20.6 µM (inactive) | GI50 [8]: 4.76 µM (inactive) | GI50 [9]: 13.3 µM (inactive) | GI50 [10]: 12.7 µM (inactive) | GI50 [11]: 2.49 µM (inactive) | GI50 [12]: 1.89 µM (inactive) | GI50 [13]: 27.1 µM (inactive) | GI50 [14]: 11.7 µM (inactive) | GI50 [15]: 17.1 µM (inactive) | GI50 [16]: 2.77 µM (inactive) | GI50 [17]: 55.5 µM (inactive) | GI50 [18]: 20.3 µM (inactive) | GI50 [19]: 2.83 µM (inactive)

O=C(CCCn1ccnc1[N+](=O)[O-])NCCn1cncc1[N+](=O)[O-]
GI50 [1]: > 100 µM (inactive) | GI50 [2]: > 100 µM (inactive) | GI50 [3]: > 100 µM (inactive) | GI50 [4]: > 100 µM (inactive) | GI50 [5]: > 100 µM (inactive) | GI50 [6]: > 100 µM (inactive) | GI50 [7]: > 100 µM (inactive) | GI50 [8]: > 100 µM (inactive) | GI50 [9]: > 100 µM (inactive) | GI50 [10]: > 100 µM (inactive) | GI50 [11]: > 100 µM (inactive) | GI50 [12]: > 100 µM (inactive) | GI50 [13]: > 100 µM (inactive) | GI50 [14]: > 100 µM (inactive) | GI50 [15]: > 100 µM (inactive) | GI50 [16]: > 100 µM (inactive) | GI50 [17]: > 100 µM (inactive) | GI50 [18]: > 100 µM (inactive) | GI50 [19]: > 100 µM (inactive)
